In brackets after ≈: the same amount, converted by molar mass. Read-outs that look alike come from different tables or passages of the source.
How the values were obtained:
Format in all cases: cell-based
[1] = test system: Streptococcus pneumoniae 1175; conditions: microtiter broth dilution
Procedure, shortened: (§1)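 Compounds were first dissolved in DMSO (40 mg/ml stock), then tested by broth dilution in microtiter trays. MICs were interpreted using the 14th Informational Supplement (M100-S14) criteria.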

[2] = test system: Streptococcus pneumoniae 1095; conditions: microtiter broth dilution
Procedure, shortened: as §1

[3] = test system: Haemophilus influenzae 1218; experiment: MIC, microtiter broth dilution (NCCLS M100-S14), H. influenzae 1218 (susceptible)
Procedure, shortened: as §1

[4] = test system: Streptococcus pyogenes 1079; experiment: MIC, microtiter broth dilution (NCCLS M100-S14), S. pyogenes 1079 (ermB)
Procedure, shortened: as §1

[5] = test system: Streptococcus pneumoniae 1016; experiment: MIC, microtiter broth dilution (NCCLS M100-S14), S. pneumoniae 1016 (susceptible)
Procedure, shortened: as §1

[6] = H. influenzae 1218 (susceptible)
[7] = S. pneumoniae 1016 (susceptible)

CCC1OC(=O)C(C)C(=O)C(C)C(OC2OC(C)CC(N(C)C)C2O)C(C)(OC)CC(C)C(=O)C(C)C2N(CC3CCN(Cc4cccc(OC)n4)CC3)C(=O)OC12C (centres unmarked) [15.05]
MIC S. pneumo. 1175 ([1]; S. pneumoniae 1175 (mefA)): 0.5 µg/mL (≈ 0.602 µM)
MIC S. pneumo. 1095 ([2]; S. pneumoniae 1095 (ermB)): >64.00 µg/mL
MIC H. influenzae 1218 [3, 6]: 8 µg/mL (≈ 9.63 µM)
MIC S. pyogenes 1079 ([4]; S. pyogenes 1079 (ermB)): >64.00 µg/mL
MIC S. pneumo. 1016 [5, 7]: <0.06 µg/mL

CCC1OC(=O)C(C)C(=O)C(C)C(OC2OC(C)CC(N(C)C)C2O)C(C)(OC)CC(C)C(=O)C(C)C2N(CC3CCN(Cc4cccnc4OC)CC3)C(=O)OC12C (centres unmarked) [15.06]
MIC S. pneumo. 1175 ([1]; S. pneumoniae 1175 (mefA)): 0.5 µg/mL (≈ 0.602 µM)
MIC S. pneumo. 1095 ([2]; S. pneumoniae 1095 (ermB)): >64.00 µg/mL
MIC H. influenzae 1218 [3, 6]: 32 µg/mL (≈ 38.5 µM)
MIC S. pyogenes 1079 ([4]; S. pyogenes 1079 (ermB)): >64.00 µg/mL
MIC S. pneumo. 1016 [5, 7]: <0.06 µg/mL

CCC1OC(=O)C(C)C(=O)C(C)C(OC2OC(C)CC(N(C)C)C2O)C(C)(OC)CC(C)C(=O)C(C)C2N(CC3CCN(Cc4ccc(-c5ccccn5)cc4)CC3)C(=O)OC12C (centres unmarked) [15.07]
MIC S. pneumo. 1175 ([1]; S. pneumoniae 1175 (mefA)): 1 µg/mL (≈ 1.14 µM)
MIC S. pneumo. 1095 ([2]; S. pneumoniae 1095 (ermB)): >64.00 µg/mL
MIC H. influenzae 1218 [3, 6]: 32 µg/mL (≈ 36.5 µM)
MIC S. pyogenes 1079 ([4]; S. pyogenes 1079 (ermB)): >64.00 µg/mL
MIC S. pneumo. 1016 [5, 7]: <0.06 µg/mL

CCC1OC(=O)C(C)C(=O)C(C)C(OC2OC(C)CC(N(C)C)C2O)C(C)(OC)CC(C)C(=O)C(C)C2N(CC3CCN(Cc4cnc(-c5ccccc5)[nH]4)CC3)C(=O)OC12C (centres unmarked) [15.08]
MIC S. pneumo. 1175 ([1]; S. pneumoniae 1175 (mefA)): 1 µg/mL (≈ 1.15 µM)
MIC S. pneumo. 1095 ([2]; S. pneumoniae 1095 (ermB)): >64.00 µg/mL
MIC H. influenzae 1218 [3, 6]: 2 µg/mL (≈ 2.31 µM)
MIC S. pyogenes 1079 ([4]; S. pyogenes 1079 (ermB)): >64.00 µg/mL
MIC S. pneumo. 1016 [5, 7]: <0.06 µg/mL

CCC1OC(=O)C(C)C(=O)C(C)C(OC2OC(C)CC(N(C)C)C2O)C(C)(OC)CC(C)C(=O)C(C)C2N(CC3CCN(Cc4ccno4)CC3)C(=O)OC12C (centres unmarked) [15.09]
MIC S. pneumo. 1175 ([1]; S. pneumoniae 1175 (mefA)): 0.5 µg/mL (≈ 0.632 µM)
MIC S. pneumo. 1095 ([2]; S. pneumoniae 1095 (ermB)): >64.00 µg/mL
MIC H. influenzae 1218 [3, 6]: 16 µg/mL (≈ 20.2 µM)
MIC S. pyogenes 1079 ([4]; S. pyogenes 1079 (ermB)): >64.00 µg/mL
MIC S. pneumo. 1016 [5, 7]: <0.06 µg/mL

CCC1OC(=O)C(C)C(=O)C(C)C(OC2OC(C)CC(N(C)C)C2O)C(C)(OC)CC(C)C(=O)C(C)C2N(CC3CCN(Cc4c[nH]nn4)CC3)C(=O)OC12C (centres unmarked) [15.10]
MIC S. pneumo. 1175 ([1]; S. pneumoniae 1175 (mefA)): 8 µg/mL (≈ 10.1 µM)
MIC S. pneumo. 1095 ([2]; S. pneumoniae 1095 (ermB)): >64.00 µg/mL
MIC H. influenzae 1218 [3, 6]: 4 µg/mL (≈ 5.06 µM)
MIC S. pyogenes 1079 ([4]; S. pyogenes 1079 (ermB)): >64.00 µg/mL
MIC S. pneumo. 1016 [5, 7]: <0.06 µg/mL

CCC1OC(=O)C(C)C(=O)C(C)C(OC2OC(C)CC(N(C)C)C2O)C(C)(OC)CC(C)C(=O)C(C)C2N(CC3C4CN(C(=O)OC(C)(C)C)CC43)C(=O)OC12C (centres unmarked) [16.01]
MIC S. pneumo. 1175 ([1]; S. pneumoniae 1175 (mefA)): 25 µg/mL (≈ 30.9 µM)
MIC S. pneumo. 1095 ([2]; S. pneumoniae 1095 (ermB)): 50 µg/mL (≈ 61.9 µM)
MIC H. influenzae 1218 [3, 6]: 1.56 µg/mL (≈ 1.93 µM)
MIC S. pyogenes 1079 ([4]; S. pyogenes 1079 (ermB)): >100.00 µg/mL
MIC S. pneumo. 1016 [5, 7]: 0.25 µg/mL (≈ 0.309 µM)

CCC1OC(=O)C(C)C(=O)C(C)C(OC2OC(C)CC(N(C)C)C2O)C(C)(OC)CC(C)C(=O)C(C)C2N(CC3C4CN(C(=O)c5cccnc5)CC43)C(=O)OC12C (centres unmarked) [16.02]
MIC S. pneumo. 1175 ([1]; S. pneumoniae 1175 (mefA)): 0.78 µg/mL (≈ 0.959 µM)
MIC S. pneumo. 1095 ([2]; S. pneumoniae 1095 (ermB)): 3.12 µg/mL (≈ 3.84 µM)
MIC H. influenzae 1218 [3, 6]: 0.78 µg/mL (≈ 0.959 µM)
MIC S. pyogenes 1079 ([4]; S. pyogenes 1079 (ermB)): >100.00 µg/mL
MIC S. pneumo. 1016 [5, 7]: 0.02 µg/mL (≈ 0.0246 µM)

CCC1OC(=O)C(C)C(=O)C(C)C(OC2OC(C)CC(N(C)C)C2O)C(C)(OC)CC(C)C(=O)C(C)C2N(CC3C4CN(C(=O)c5cc(F)ccc5F)CC43)C(=O)OC12C (centres unmarked) [16.03]
MIC S. pneumo. 1175 ([1]; S. pneumoniae 1175 (mefA)): 0.5 µg/mL (≈ 0.59 µM)
MIC S. pneumo. 1095 ([2]; S. pneumoniae 1095 (ermB)): 1.56 µg/mL (≈ 1.84 µM)
MIC H. influenzae 1218 [3, 6]: 0.5 µg/mL (≈ 0.59 µM)
MIC S. pyogenes 1079 ([4]; S. pyogenes 1079 (ermB)): 50 µg/mL (≈ 59 µM)
MIC S. pneumo. 1016 [5, 7]: 0.01 µg/mL (≈ 0.0118 µM)

CCC1OC(=O)C(C)C(=O)C(C)C(OC2OC(C)CC(N(C)C)C2O)C(C)(OC)CC(C)C(=O)C(C)C2N(CC3C4CN(Cc5cccnc5)CC43)C(=O)OC12C (centres unmarked) [16.04]
MIC S. pneumo. 1175 ([1]; S. pneumoniae 1175 (mefA)): >100.00 µg/mL
MIC S. pneumo. 1095 ([2]; S. pneumoniae 1095 (ermB)): 3.12 µg/mL (≈ 3.9 µM)
MIC H. influenzae 1218 [3, 6]: 0.5 µg/mL (≈ 0.626 µM)
MIC S. pyogenes 1079 ([4]; S. pyogenes 1079 (ermB)): >100.00 µg/mL
MIC S. pneumo. 1016 [5, 7]: 0.03 µg/mL (≈ 0.0375 µM)

CCC1OC(=O)C(C)C(=O)C(C)C(OC2OC(C)CC(N(C)C)C2O)C(C)(OC)CC(C)C(=O)C(C)C2N(CC3C4CN(C(=O)c5cccc(C#N)c5)CC43)C(=O)OC12C (centres unmarked) [16.05]
MIC S. pneumo. 1175 ([1]; S. pneumoniae 1175 (mefA)): 1.56 µg/mL (≈ 1.86 µM)
MIC S. pneumo. 1095 ([2]; S. pneumoniae 1095 (ermB)): 1.56 µg/mL (≈ 1.86 µM)
MIC H. influenzae 1218 [3, 6]: 0.5 µg/mL (≈ 0.597 µM)
MIC S. pyogenes 1079 ([4]; S. pyogenes 1079 (ermB)): 3.12 µg/mL (≈ 3.73 µM)
MIC S. pneumo. 1016 [5, 7]: 0.01 µg/mL (≈ 0.0119 µM)

CCC1OC(=O)C(C)C(=O)C(C)C(OC2OC(C)CC(N(C)C)C2O)C(C)(OC)CC(C)C(=O)C(C)C2N(C3CN(Cc4ccccc4)C3)C(=O)OC12C (centres unmarked) [Example 1.01, benzyl]
MIC S. pneumo. 1175 ([1]; Streptococcus pneumoniae 1175): 0.12 µg/mL (≈ 0.158 µM)
MIC S. pneumo. 1095 ([2]; Streptococcus pneumoniae 1095): <0.06 µg/mL
MIC H. influenzae 1218 ([3]; Haemophilus influenzae 1218): 0.5 µg/mL (≈ 0.66 µM)
MIC S. pyogenes 1079 ([4]; Streptococcus pyogenes 1079): >64.00 µg/mL
MIC S. pneumo. 1016 ([5]; Streptococcus pneumoniae 1016): <0.06 µg/mL

CCC1OC(=O)C(C)C(=O)C(C)C(OC2OC(C)CC(N(C)C)C2O)C(C)(OC)CC(C)C(=O)C(C)C2N(C3CN(Cc4ccccn4)C3)C(=O)OC12C (centres unmarked) [Example 1.02, (pyridin-2-yl)methyl]
MIC S. pneumo. 1175 ([1]; Streptococcus pneumoniae 1175): 0.12 µg/mL (≈ 0.158 µM)
MIC S. pneumo. 1095 ([2]; Streptococcus pneumoniae 1095): 0.12 µg/mL (≈ 0.158 µM)
MIC H. influenzae 1218 ([3]; Haemophilus influenzae 1218): 0.25 µg/mL (≈ 0.329 µM)
MIC S. pyogenes 1079 ([4]; Streptococcus pyogenes 1079): >64.00 µg/mL
MIC S. pneumo. 1016 ([5]; Streptococcus pneumoniae 1016): <0.06 µg/mL

— US7462600B2, “Macrolides” (Pfizer Inc, priority 2004, dated 2008)
